Drawing on patent US10131664B2 (Celgene Quanticel Research, Inc., priority 2013, dated 2018), this text covers IC50 for 32 compounds.

The target of test [1] is full-length human LSD1 (Homo sapiens (Human), UniProt O60341). Description: In vitro enzyme inhibition assay LSD-1 (TR-FRET). Type of test: biochemical. The conditions noted are these: TR-FRET, 0.1 nM LSD1, 50 nM H3K4me1-biotin peptide, 2 μM FAD, pH7.3; read-out: LSD1 IC50. Here is the method: This assay determines the ability of a test compound to inhibit LSD1 demethylase activity.
The enzymatic assay of LSD1 activity is based on Time Resolved-Fluorescence Resonance Energy Transfer (TR-FRET) detection.
The ability of the compounds disclosed herein to inhibit LSD1 activity was quantified and the respective IC50 value was determined. Table 5 provides the IC50 values of various substituted heterocyclic compounds disclosed herein.

For test [2], the system named is THP-1 (AML) cells. Description: LSD1 CD11b cellular assay (flow cytometry). Format: cell-based. The conditions noted are these: Homo sapiens, 96 h; CD11b expression in THP-1 (AML) cells, flow cytometry, 4 days incubation; read-out: Cellular IC50. Here is the method:
To analyze LSD1 inhibitor efficacy in cells, a CD11b flow cytometry assay was performed. LSD1 inhibition induces CD11b expression in THP-1 (AML) cells which can be measured by flow cytometry. […] LSD1 test compounds were serially diluted in DMSO. The dilutions were added to each well accordingly to a final concentration of 0.2% DMSO. The cells were incubated at 37° C. in 5% CO2 for 4 days. 250 μL of each well was transferred to a well in a 96 well round bottom plate. The plate was centrifuged at 1200 rpm at 4 degrees Celsius in a Beckman Coulter Alegra 6KR centrifuge for 5 min. The media was removed leaving the cells at the bottom of the wells. The cells were washed in 100 μL cold HBSS (Hank's Balanced Salt Solution) plus 2% BSA (Bovine Serum Albumin) solution and centrifuged at 1200 rpm at 4° C. for 5 min. The wash was removed. […] The cells were centrifuged and washed two times in 100 μl HBSS plus 2% BSA. After the final spin the cells were resuspended in 100 μL HBSS plus 2% BSA containing 1 μg/mL DAPI (4′,6-diamidino-2-phenylindole). The cells were then analyzed by flow cytometry in a BD FACSAria machine. Cells were analyzed for CD11b expression. The percent of CD11b expressing cells for each inhibitor concentration was used to determine an IC50 curve for each compound analyzed.

Counter-ions that a name gives are not always drawn.

Broadly, the IC50 is the midpoint of a concentration-inhibition curve. Regarding `N#Cc1ccc(-c2nc(NCC3CNCCO3)ncc2-c2ccc(F)cc2)cc1` (racemic) [Example 34, (±)-4-[5-(4-fluorophenyl)-2-[(morpholin-2-ylmethyl)amino]pyrimidin-4-yl]benzonitrile], the half-inhibitory concentration (IC50) in test [1] was in the range of 100 to 1000 nM. In the case of `Cc1ccc(-c2cnc(NCC3(F)CCNC3)nc2-c2ccc(C#N)cc2)cc1` (single isomer, unassigned; (+)) [Example 28, (+)-4-(2-{[(3-fluoropyrrolidin-3-yl)methyl]amino}-5-(4-methylphenyl)pyrimidin-4-yl)benzonitrile], the half-maximal inhibitory concentration (IC50) in test [2] fell in the range of 100 to 1000 nM. `Cc1ccc(-c2cnc(NC3CCCNC3)nc2-c2ccc(C#N)cc2)cc1` (single isomer, unassigned; (+)) [Example 29, (+)-4-[5-(4-methylphenyl)-2-[(piperidin-3-yl)amino]pyrimidin-4-yl]benzonitrile]: the IC50 in test [2] is 100 to 1000 nM.

`COc1ccc(-c2nc3ccn(CC4CCNC4)c3cc2-c2ccc(C#N)c(F)c2)cc1F` (stereo in doubt) [Example 55, 4-{1-[((3R)pyrrolidin-3-yl)methyl]-5-(3-fluoro-4-methoxyphenyl)pyrrolo[3,2-b]pyridin-6-yl}-2-fluorobenzenecarbonitrile, HCl salt]: the 50% inhibitory concentration (IC50) in test [1] and in test [2] was less than 100 nM each time. For the compound `Cc1ccc(-c2nc3ccn(C[C@@H]4CCNC4)c3cc2-c2ccc(C#N)cc2)cc1` [Example 1, 4-[5-(4-methylphenyl)-1-[[(3R)-pyrrolidin-3-yl]methyl]pyrrolo[3,2-b]pyridin-6-yl]benzonitrile], the IC50 in test [1] and in test [2] was less than 100 nM throughout. `N#Cc1ccc(-c2cc3c(ccn3C[C@@H]3CCNC3)nc2Cl)cc1` [Example 2]: the IC50 in test [2] lay within 1000 to 10000 nM.

On to `Cc1ccc(-c2nc3ccn(C[C@H]4CCNC4)c3cc2-c2ccc(C#N)cc2)cc1` [Example 3, 4-[5-(4-methylphenyl)-1-[[(3S)-pyrrolidin-3-yl]methyl]pyrrolo[3,2-b]pyridin-6-yl]benzonitrile], for which the IC50 in test [1] and in test [2] was less than 100 nM in each case.

On to `N#Cc1ccc(-c2cc3c(ccn3C[C@H]3CCNC3)nc2Cl)cc1` [Example 4, 4-[5-chloro-1-[[(3S)-pyrrolidin-3-yl]methyl]pyrrolo[3,2-b]pyridin-6-yl]benzonitrile], for which the IC50 in test [1] was in the range of 100 to 1000 nM; in test [2] it was 1000 to 10000 nM. Taken in the same sequence, the figures for `N#Cc1ccc(-c2cc3c(ccn3C[C@H]3CCNC3)nc2-c2ccc(F)cc2)cc1` [Example 5, 4-[5-(4-fluorophenyl)-1-[[(3S)-pyrrolidin-3-yl]methyl]pyrrolo[3,2-b]pyridin-6-yl]benzonitrile] were less than 100 nM and 1000 to 10000 nM. With `N#Cc1ccc(-c2cc3c(ccn3C[C@@H]3CCNC3)nc2N2CCOCC2)cc1` [Example 6, 4-[5-morpholin-4-yl-1-[[(3R)-pyrrolidin-3-yl]methyl]pyrrolo[3,2-b]pyridin-6-yl]benzonitrile], the half-inhibitory concentration (IC50) in test [1] was in the range of 100 to 1000 nM; in test [2], 1000 to 10000 nM. Regarding `N#Cc1ccc(-c2cc3c(ccn3C[C@H]3CCNC3)nc2N2CCOCC2)cc1` [Example 7, 4-[5-morpholin-4-yl-1-[[(3S)-pyrrolidin-3-yl]methyl]pyrrolo[3,2-b]pyridin-6-yl]benzonitrile], the IC50 was less than 100 nM in test [1] and 100 to 1000 nM in test [2].

Consider `N#Cc1ccc(-c2cc3c(ccn3CC3(F)CCNC3)nc2N2CCOCC2)cc1` (stereo not drawn) [Example 8, 4-[1-[(3-fluoropyrrolidin-3-yl)methyl]-5-morpholin-4-ylpyrrolo[3,2-b]pyridin-6-yl]benzonitrile], for which the half-maximal inhibitory concentration (IC50) in test [1] is 100 to 1000 nM.

For the compound `N#Cc1ccc(-c2nc(NC[C@H]3CCNC3)ncc2Cl)cc1` [Example 17, 4-(5-chloro-2-{[(3S)-pyrrolidin-3-ylmethyl]amino}pyrimidin-4-yl)benzonitrile], the half-inhibitory concentration (IC50) in test [1] lay in the range of 100 to 1000 nM. As for `N#Cc1ccc(-c2nc(N3CC[C@@H]4CNC[C@@H]4CC3)ncc2-c2ccc(F)cc2)cc1` [Example 24, 4-{2-[(3aR,8aS)-decahydropyrrolo[3,4-d]azepin-6-yl]-5-(4-fluorophenyl)pyrimidin-4-yl}benzonitrile], the half-inhibitory concentration (IC50) in test [1] was less than 100 nM. Consider `Cc1ccc(-c2cnc(NC3CCNCC3)nc2-c2ccc(C#N)cc2)cc1` [Example 30, 4-[5-(4-methylphenyl)-2-[(piperidin-4-yl)amino]pyrimidin-4-yl]benzonitrile], for which the IC50 in test [1] is less than 100 nM. Same read-out and setting: the value for `Cc1ccc(-c2cnc(NCC3CCNCC3)nc2-c2ccc(C#N)cc2)cc1` [Example 32, 4-[5-(4-methylphenyl)-2-[(piperidin-4-ylmethyl)amino]pyrimidin-4-yl]benzonitrile] was less than 100 nM; that for `Cc1ccc(-c2cnc(N3CCC4(CCNC4)C3)nc2-c2ccc(C#N)cc2)cc1` (stereo not drawn) [Example 35, 4-(2-{2,7-diazaspiro[4.4]nonan-2-yl}-5-(4-methylphenyl)pyrimidin-4-yl)benzonitrile] was less than 100 nM. With `Cc1ccc(-c2cnc(N3CCC4(CCNCC4)C3)nc2-c2ccc(C#N)cc2)cc1` [Example 36, 4-(2-{2,8-diazaspiro[4.5]decan-2-yl}-5-(4-methylphenyl)pyrimidin-4-yl)benzonitrile], in test [1], the IC50 is less than 100 nM. Same read-out and setting: as for `Cc1ccc(-c2cnc(N3CCC4(CCNC4)CC3)nc2-c2ccc(C#N)cc2)cc1` [Example 39, 4-(2-{2,8-diazaspiro[4.5]decan-8-yl}-5-(4-methylphenyl)pyrimidin-4-yl)benzonitrile], the figure is less than 100 nM; as for `Cc1ccc(-c2cnc(N3CCC4(CCCN4)CC3)nc2-c2ccc(C#N)cc2)cc1` [Example 40, 4-(2-{1,8-diazaspiro[4.5]decan-8-yl}-5-(4-methylphenyl)pyrimidin-4-yl)benzonitrile], less than 100 nM.

As to `Cc1ccc(-c2cnc(N3CC4CNCC(C3)O4)nc2-c2ccc(C#N)cc2)cc1` [Example 41, 4-[5-(4-methylphenyl)-2-{9-oxa-3,7-diazabicyclo[3.3.1]nonan-3-yl}pyrimidin-4-yl]benzonitrile], the IC50 in test [1] lay in the range of 100 to 1000 nM. The same measure, in the same setting: as for `N#Cc1ccc(-c2nc(N3CC4CNCC(C3)O4)ncc2-c2ccc(F)cc2)cc1` [Example 42, 4-[5-(4-fluorophenyl)-2-{9-oxa-3,7-diazabicyclo[3.3.1]nonan-3-yl}pyrimidin-4-yl]benzonitrile], the figure is 100 to 1000 nM. In the case of `Cc1ccc(-c2nc3cnn(C4CCNCC4)c3cc2-c2ccc(C#N)cc2)cc1` [Example 48, 4-[5-(4-methylphenyl)-1-piperidin-4-ylpyrazolo[4,3-b]pyridin-6-yl]benzonitrile], in test [2], the IC50 is greater than 10000 nM. Regarding `COc1ncc(-c2cnc(N3CCC(N)CC3)nc2-c2ccc(C#N)cc2)cn1` [Example 74, 4-[2-(4-aminopiperidin-1-yl)-5-(2-methoxypyrimidin-5-yl)pyrimidin-4-yl]benzonitrile], in test [1], the half-inhibitory concentration (IC50) was less than 100 nM.

`Cc1nc2cc(-c3cnc(N4CCC(N)CC4)nc3-c3ccc(C#N)cc3)ccc2n1C` [Example 75, 4-[2-(4-aminopiperidin-1-yl)-5-(1,2-dimethylbenzimidazol-5-yl)pyrimidin-4-yl]benzonitrile]: the concentration for half-maximal inhibition (IC50) in test [1] was less than 100 nM.

As to `N#Cc1ccc(-c2nc(N3CCC(N)CC3)ncc2-c2ccn3ncnc3c2)cc1` [Example 81, 4-[2-(4-aminopiperidin-1-yl)-5-([1,2,4]triazdo[1,5-a]pyridin-7-yl)pyrimidin-4-yl]benzonitrile], the IC50 in test [1] was 100 to 1000 nM. On to `Cn1cc2nc(-c3cnc(N4CCC(N)CC4)nc3-c3ccc(C#N)cc3)ncc2n1` [Example 86], for which, in test [1], the IC50 lay in the range of 100 to 1000 nM. The same measure, in the same setting: as for `Cn1ncc2nc(-c3cnc(N4CCC(N)CC4)nc3-c3ccc(C#N)cc3)ncc21` [Example 88, 4-[2-(4-aminopiperidin-1-yl)-5-(1-methylpyrazolo[4,3-d]pyrimidin-5-yl)pyrimidin-4-yl]benzonitrile], the figure is 100 to 1000 nM. In the case of `Cc1ncc(-c2cnc(N3CCC(N)CC3)nc2-c2ccc(C#N)cc2)cn1` [Example 90, 4-[2-(4-aminopiperidin-1-yl)-5-(2-methylpyrimidin-5-yl)pyrimidin-4-yl]benzonitrile], the IC50 in test [1] is less than 100 nM.

Consider `Cc1nn(C)cc1-c1cnc(N2CCC3CNCC3CC2)nc1-c1ccc(C#N)cc1` (stereo not drawn) [Example 118, 4-[2-(2,3,3a,4,5,7,8,8a-octahydro-1H-pyrrolo[3,4-d]azepin-6-yl)-5-(1,3-dimethylpyrazol-4-yl)pyrimidin-4-yl]benzonitrile], for which the IC50 in test [1] was less than 100 nM.

As to `N#Cc1ccc(-c2nc(N3CCC4(CCNC4)CC3)ncc2-c2cnn(CC(F)(F)F)c2)cc1` [Example 121, 4-[2-(2,8-diazaspiro[4.5]decan-8-yl)-5-[1-(2,2,2-trifluoroethyl)pyrazol-4-yl]pyrimidin-4-yl]benzonitrile], in test [1], the half-inhibitory concentration (IC50) was less than 100 nM.

As to `N#Cc1ccc(-c2nc(N3CCC(N)CC3)ncc2-c2ccc3ncnn3c2)cc1` [Example 127, 4-[2-(4-aminopiperidin-1-yl)-5-([1,2,4]triazolo[1,5-a]pyridin-6-yl)pyrimidin-4-yl]benzonitrile], the IC50 in test [1] lay within 100 to 1000 nM.
